Measured values published in ChEMBL document CHEMBL3045841, “Novel diamide insecticides: sulfoximines, sulfonimidamides and other new sulfonimidoyl derivatives” (Bioorg Med Chem Lett, 2012).
≈ marks a conversion by molar mass, not a printed value. Calls of active or inactive are those of the source. The calls are words filed in the database; no cut-off is given here.

What was measured:
Plutella xylostella = assay: Insecticidal activity against Plutella xylostella (diamondback moth) assessed as mortality by greenhouse assay; type: functional
Myzus persicae = assay: Insecticidal activity against Myzus persicae (green peach aphid) assessed as mortality by greenhouse assay; type: functional
[1] = Aqueous solubility of the compound at pH 7; type: physicochemical; conditions: buffer
[2] = Lipophilicity, log P of the compound; type: physicochemical; conditions: octanol/water
Spodoptera littoralis [3] = assay: Insecticidal activity against Spodoptera littoralis assessed as mortality by greenhouse assay; type: functional
Phyllotreta striolata = assay: Insecticidal activity against Phyllotreta striolata in radish assessed as control of pests measured after 12 to 22 days of seed application; type: functional, organism-based
Spodoptera frugiperda = assay: Insecticidal activity against Spodoptera frugiperda (fall armyworm) in maize assessed as control of pests measured after 12 to 22 days of seed application; type: functional, organism-based
Spodoptera littoralis [4] = assay: Insecticidal activity against Spodoptera littoralis in maize assessed as control of pests measured after 12 to 22 days of seed application; type: functional, organism-based
Agrotis ipsilon = assay: Insecticidal activity against Agrotis ipsilon in maize assessed as control of pests measured after 12 to 22 days of seed application; type: functional, organism-based
Liriomyza trifolii = assay: Insecticidal activity against Liriomyza trifolii in kidney beans assessed as control of pests measured after 12 to 22 days of seed application; type: functional, organism-based

With `CN=S(=O)(CC(C)NC(=O)c1cc(C#N)cc(C)c1NC(=O)c1cc(Br)nn1-c1ncccc1Cl)NOC` (centres undefined) the EC80 (Plutella xylostella) was 3.1 µg/mL (≈ 4.97 µM), the EC80 (Myzus persicae) was > 200 µg/mL and the solubility [1] was 17 ppm. The logP [2] was 1.8 and the EC80 (Spodoptera littoralis [3]) was 50 µg/mL (≈ 80.1 µM).
`Cc1cc(Cl)cc(C(=O)NC(C)(C)CS(C)(=O)=NC#N)c1NC(=O)c1cc(C(F)(F)F)nn1-c1ncccc1Cl` (centres undefined) showed an EC80 (Plutella xylostella) of 0.8 µg/mL (≈ 1.3 µM), an EC80 (Myzus persicae) of 200 µg/mL (≈ 324 µM) and a solubility [1] of 14 ppm. The logP [2] was 2.9 and the EC80 (Spodoptera littoralis [3]) was 0.8 µg/mL (≈ 1.3 µM).
For `CN=S(=O)(CC(C)NC(=O)c1cc(C#N)cc(C)c1NC(=O)c1cc(Br)nn1-c1ncccc1Cl)NN(C)C` (centres undefined), the EC80 (Plutella xylostella) was 12.5 µg/mL (≈ 19.6 µM), the EC80 (Myzus persicae) was 12.5 µg/mL (≈ 19.6 µM) and the solubility [1] was 48 ppm. The logP [2] was 2.1 and the EC80 (Spodoptera littoralis [3]) was 50 µg/mL (≈ 78.5 µM).
`Cc1cc(C#N)cc(C(=O)NC(C)(C)CS(C)(=O)=NC#N)c1NC(=O)c1cc(Br)nn1-c1ncccc1Cl` (centres undefined) showed an EC80 (Plutella xylostella) of 0.8 µg/mL (≈ 1.29 µM), an EC80 (Myzus persicae) of 200 µg/mL (≈ 324 µM) and a solubility [1] of 59 ppm. For the same compound, the logP [2] was 1.7 and the EC80 (Spodoptera littoralis [3]) was 50 µg/mL (≈ 80.9 µM).
In the case of `CNS(=N)(=O)CC(C)NC(=O)c1cc(C#N)cc(C)c1NC(=O)c1cc(Br)nn1-c1ncccc1Cl` (centres undefined), the EC80 (Plutella xylostella) is reported as 12.5 µg/mL (≈ 21 µM), the EC80 (Myzus persicae) is reported as 200 µg/mL (≈ 337 µM) and the solubility [1] is reported as 96 ppm. It also gave a logP [2] of 1.1 and an EC80 (Spodoptera littoralis [3]) of 50 µg/mL (≈ 84.2 µM).
With `Cc1cc(Cl)cc(C(=O)NC(C)(C)CS(C)(=N)=O)c1NC(=O)c1cc(OCC(F)(F)F)nn1-c1ncccc1Cl` (centres undefined) the EC80 (Plutella xylostella) was 0.2 µg/mL (≈ 0.322 µM), the EC80 (Myzus persicae) was 12.5 µg/mL (≈ 20.1 µM) and the solubility [1] was 295 ppm. For the same compound, the Activity (Phyllotreta striolata) was “Active”, the Activity (Spodoptera frugiperda) was “Active” and the logP [2] was 2.4. For the same compound, the Activity (Spodoptera littoralis [4]) was “Active”, the Activity (Agrotis ipsilon) was “Active” and the Activity (Liriomyza trifolii) was “Active”. It also gave an EC80 (Spodoptera littoralis [3]) of 0.8 µg/mL (≈ 1.29 µM).
With `Cc1cc(C#N)cc(C(=O)NC(C)(C)CS(C)(=N)=O)c1NC(=O)c1cc(Br)nn1-c1ncccc1Cl` (centres undefined) the EC80 (Plutella xylostella) was 0.8 µg/mL (≈ 1.35 µM), the EC80 (Myzus persicae) was 12.5 µg/mL (≈ 21.1 µM) and the solubility [1] was 42 ppm. It also gave a logP [2] of 1.1 and an EC80 (Spodoptera littoralis [3]) of 0.8 µg/mL (≈ 1.35 µM).
Compound `CNC(=O)c1cc(Cl)cc(C)c1NC(=O)c1cc(Br)nn1-c1ncccc1Cl` [CHLORANTRANILIPROLE] has an EC80 (Plutella xylostella) of 0.8 µg/mL (≈ 1.66 µM), an EC80 (Myzus persicae) of 50 µg/mL (≈ 103 µM) and a solubility [1] of 1 ppm. For the same compound, the logP [2] was 2.8 and the EC80 (Spodoptera littoralis [3]) was 0.8 µg/mL (≈ 1.66 µM).
With `CNC(=O)c1cc(C#N)cc(C)c1NC(=O)c1cc(Br)nn1-c1ncccc1Cl` [CYANTRANILIPROLE] the EC80 (Plutella xylostella) was 0.8 µg/mL (≈ 1.69 µM), the EC80 (Myzus persicae) was 12.5 µg/mL (≈ 26.4 µM) and the solubility [1] was 14 ppm. For the same compound, the logP [2] was 1.9 and the EC80 (Spodoptera littoralis [3]) was 3.1 µg/mL (≈ 6.54 µM).
With `Cc1cc(C(F)(C(F)(F)F)C(F)(F)F)ccc1NC(=O)c1cccc(I)c1C(=O)NC(C)(C)CS(C)(=O)=O` [FLUBENDIAMIDE] the EC80 (Plutella xylostella) was 3.1 µg/mL (≈ 4.54 µM), the EC80 (Myzus persicae) was > 200 µg/mL and the solubility [1] was 0.3 ppm. For the same compound, the EC80 (Spodoptera littoralis [3]) was 3.1 µg/mL (≈ 4.54 µM).
Compound `Cc1cc(C#N)cc(C(=O)NC(C)(C)CS(C)(=N)=O)c1NC(=O)c1cc(OCC(F)(F)F)nn1-c1ncccc1Cl` (centres undefined) has an EC80 (Plutella xylostella) of 0.2 µg/mL (≈ 0.327 µM), an EC80 (Myzus persicae) of 3.1 µg/mL (≈ 5.07 µM) and a solubility [1] of 361 ppm. The logP [2] was 1.6 and the EC80 (Spodoptera littoralis [3]) was 0.8 µg/mL (≈ 1.31 µM).
In the case of `CNS(=N)(=O)CC(C)NC(=O)c1cc(Cl)cc(C)c1NC(=O)c1cc(Br)nn1-c1ncccc1Cl` (centres undefined), the EC80 (Plutella xylostella) is reported as 3.1 µg/mL (≈ 5.14 µM), the EC80 (Myzus persicae) is reported as 200 µg/mL (≈ 331 µM) and the solubility [1] is reported as 95 ppm. It also gave a logP [2] of 2 and an EC80 (Spodoptera littoralis [3]) of 12.5 µg/mL (≈ 20.7 µM).
With `Cc1cc(C#N)cc(C(=O)NC(C)(C)CS(C)(=O)=N[N+](=O)[O-])c1NC(=O)c1cc(Br)nn1-c1ncccc1Cl` (centres undefined) the EC80 (Plutella xylostella) was 0.8 µg/mL (≈ 1.25 µM), the EC80 (Myzus persicae) was 200 µg/mL (≈ 314 µM) and the solubility [1] was 29 ppm. It also gave a logP [2] of 1.9 and an EC80 (Spodoptera littoralis [3]) of 12.5 µg/mL (≈ 19.6 µM).
Work on `Cc1cc(Cl)cc(C(=O)NC(C)(C)CS(C)(=N)=O)c1NC(=O)c1cc(C(F)(F)F)nn1-c1ncccc1Cl` (centres undefined) yielded an EC80 (Plutella xylostella) of 0.8 µg/mL (≈ 1.35 µM), an EC80 (Myzus persicae) of 50 µg/mL (≈ 84.5 µM) and a solubility [1] of 196 ppm. The Activity (Phyllotreta striolata) was “Active”, the Activity (Spodoptera frugiperda) was “Active” and the logP [2] was 2.4. For the same compound, the Activity (Spodoptera littoralis [4]) was “Active”, the Activity (Agrotis ipsilon) was “Active” and the Activity (Liriomyza trifolii) was “Active”. For the same compound, the EC80 (Spodoptera littoralis [3]) was 0.8 µg/mL (≈ 1.35 µM).
